Key:
Assay type in all cases: cell-based, Oocyte
[1] = target: Glutamate NMDA receptor; Grin1/Grin2a (Rattus norvegicus, UniProt P35439+Q00959); assay: Functional antagonism by electrical assays in Xenopus oocytes expressing 1A/2A NMDA receptor subtype
[2] = target: Glutamate NMDA receptor; Grin1/Grin2b (Rattus norvegicus, UniProt P35439+Q00960); assay: Functional antagonism by electrical assays in Xenopus oocytes expressing the 1A/2B NMDA receptor
[3] = target: Glutamate NMDA receptor; Grin1/Grin2c (Rattus norvegicus, UniProt P35439+Q00961); assay: Functional antagonism by electrical assays in Xenopus oocytes expressing the 1A/2C NMDA receptor
Chain of Glutamate NMDA receptor; Grin1/Grin2c (Q00961 whole entry, other chains not shown): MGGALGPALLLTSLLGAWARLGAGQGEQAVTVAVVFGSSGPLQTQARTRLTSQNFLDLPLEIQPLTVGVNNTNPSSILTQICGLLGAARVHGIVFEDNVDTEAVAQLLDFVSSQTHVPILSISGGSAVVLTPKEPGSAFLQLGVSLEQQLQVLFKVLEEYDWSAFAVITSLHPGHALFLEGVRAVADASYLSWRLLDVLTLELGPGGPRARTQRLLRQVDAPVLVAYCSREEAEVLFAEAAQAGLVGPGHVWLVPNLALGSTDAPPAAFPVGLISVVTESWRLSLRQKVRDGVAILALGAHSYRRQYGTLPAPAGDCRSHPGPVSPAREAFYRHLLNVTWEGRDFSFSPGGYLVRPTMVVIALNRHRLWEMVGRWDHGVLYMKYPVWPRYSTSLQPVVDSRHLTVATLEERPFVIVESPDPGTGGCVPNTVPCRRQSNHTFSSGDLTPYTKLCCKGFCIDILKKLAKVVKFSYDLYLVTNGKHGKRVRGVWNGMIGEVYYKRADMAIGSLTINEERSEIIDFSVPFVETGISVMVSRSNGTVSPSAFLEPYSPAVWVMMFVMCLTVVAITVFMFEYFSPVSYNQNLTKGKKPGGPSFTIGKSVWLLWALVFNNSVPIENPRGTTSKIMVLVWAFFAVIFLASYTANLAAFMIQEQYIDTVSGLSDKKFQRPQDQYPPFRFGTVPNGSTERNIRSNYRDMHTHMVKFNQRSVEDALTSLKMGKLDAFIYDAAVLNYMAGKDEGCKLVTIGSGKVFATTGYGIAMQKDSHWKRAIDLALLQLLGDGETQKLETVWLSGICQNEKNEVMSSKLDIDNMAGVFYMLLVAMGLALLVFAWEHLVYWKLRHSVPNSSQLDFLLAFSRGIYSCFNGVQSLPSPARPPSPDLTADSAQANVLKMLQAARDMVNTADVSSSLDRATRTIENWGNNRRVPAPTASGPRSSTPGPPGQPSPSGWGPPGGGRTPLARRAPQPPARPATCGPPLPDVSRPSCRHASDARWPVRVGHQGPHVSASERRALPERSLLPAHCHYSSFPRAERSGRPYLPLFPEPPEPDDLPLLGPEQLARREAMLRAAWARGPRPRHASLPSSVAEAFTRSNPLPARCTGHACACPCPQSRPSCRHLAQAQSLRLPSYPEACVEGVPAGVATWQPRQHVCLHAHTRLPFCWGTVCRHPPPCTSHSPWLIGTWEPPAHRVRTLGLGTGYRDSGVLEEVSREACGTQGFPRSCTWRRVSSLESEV

Chain of Glutamate NMDA receptor; Grin1/Grin2a (Q00959 whole entry, other chains not shown): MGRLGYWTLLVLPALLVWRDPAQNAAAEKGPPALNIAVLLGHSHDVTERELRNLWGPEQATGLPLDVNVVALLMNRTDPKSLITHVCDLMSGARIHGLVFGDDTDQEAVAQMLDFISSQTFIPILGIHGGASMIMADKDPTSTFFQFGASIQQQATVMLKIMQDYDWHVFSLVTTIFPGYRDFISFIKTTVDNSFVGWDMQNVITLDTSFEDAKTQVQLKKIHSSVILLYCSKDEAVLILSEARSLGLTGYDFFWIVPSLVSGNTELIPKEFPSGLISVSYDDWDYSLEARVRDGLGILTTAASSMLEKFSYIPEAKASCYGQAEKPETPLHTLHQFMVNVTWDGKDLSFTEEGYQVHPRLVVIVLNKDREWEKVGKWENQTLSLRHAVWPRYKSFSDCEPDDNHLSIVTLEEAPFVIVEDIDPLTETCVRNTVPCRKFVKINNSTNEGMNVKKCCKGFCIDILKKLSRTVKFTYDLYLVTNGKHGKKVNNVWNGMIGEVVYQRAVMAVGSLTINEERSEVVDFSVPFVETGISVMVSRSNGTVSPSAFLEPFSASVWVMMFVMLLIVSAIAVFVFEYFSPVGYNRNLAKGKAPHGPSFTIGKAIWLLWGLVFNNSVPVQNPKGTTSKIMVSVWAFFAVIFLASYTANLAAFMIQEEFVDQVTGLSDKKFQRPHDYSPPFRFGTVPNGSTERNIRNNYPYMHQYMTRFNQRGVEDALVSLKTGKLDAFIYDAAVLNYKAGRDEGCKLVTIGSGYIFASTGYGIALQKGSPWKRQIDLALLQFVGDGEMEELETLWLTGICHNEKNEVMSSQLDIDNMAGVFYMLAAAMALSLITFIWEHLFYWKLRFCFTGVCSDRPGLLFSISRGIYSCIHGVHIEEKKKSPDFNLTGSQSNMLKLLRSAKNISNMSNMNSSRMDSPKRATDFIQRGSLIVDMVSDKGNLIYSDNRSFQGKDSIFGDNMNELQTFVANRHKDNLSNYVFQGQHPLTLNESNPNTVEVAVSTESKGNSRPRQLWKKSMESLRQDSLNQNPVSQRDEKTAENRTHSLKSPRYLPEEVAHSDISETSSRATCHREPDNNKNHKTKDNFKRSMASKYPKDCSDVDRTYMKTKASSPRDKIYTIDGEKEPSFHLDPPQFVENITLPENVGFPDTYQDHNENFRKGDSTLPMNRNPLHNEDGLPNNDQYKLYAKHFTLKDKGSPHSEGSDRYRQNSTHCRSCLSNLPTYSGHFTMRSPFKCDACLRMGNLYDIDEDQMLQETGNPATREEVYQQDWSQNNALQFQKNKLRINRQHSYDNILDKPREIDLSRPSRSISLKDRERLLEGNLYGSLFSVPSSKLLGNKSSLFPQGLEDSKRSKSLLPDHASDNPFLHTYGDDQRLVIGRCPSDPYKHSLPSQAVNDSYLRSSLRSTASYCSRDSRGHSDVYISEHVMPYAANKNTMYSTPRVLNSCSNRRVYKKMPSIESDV
Chain of Glutamate NMDA receptor; Grin1/Grin2b (Q00960 whole entry, other chains not shown): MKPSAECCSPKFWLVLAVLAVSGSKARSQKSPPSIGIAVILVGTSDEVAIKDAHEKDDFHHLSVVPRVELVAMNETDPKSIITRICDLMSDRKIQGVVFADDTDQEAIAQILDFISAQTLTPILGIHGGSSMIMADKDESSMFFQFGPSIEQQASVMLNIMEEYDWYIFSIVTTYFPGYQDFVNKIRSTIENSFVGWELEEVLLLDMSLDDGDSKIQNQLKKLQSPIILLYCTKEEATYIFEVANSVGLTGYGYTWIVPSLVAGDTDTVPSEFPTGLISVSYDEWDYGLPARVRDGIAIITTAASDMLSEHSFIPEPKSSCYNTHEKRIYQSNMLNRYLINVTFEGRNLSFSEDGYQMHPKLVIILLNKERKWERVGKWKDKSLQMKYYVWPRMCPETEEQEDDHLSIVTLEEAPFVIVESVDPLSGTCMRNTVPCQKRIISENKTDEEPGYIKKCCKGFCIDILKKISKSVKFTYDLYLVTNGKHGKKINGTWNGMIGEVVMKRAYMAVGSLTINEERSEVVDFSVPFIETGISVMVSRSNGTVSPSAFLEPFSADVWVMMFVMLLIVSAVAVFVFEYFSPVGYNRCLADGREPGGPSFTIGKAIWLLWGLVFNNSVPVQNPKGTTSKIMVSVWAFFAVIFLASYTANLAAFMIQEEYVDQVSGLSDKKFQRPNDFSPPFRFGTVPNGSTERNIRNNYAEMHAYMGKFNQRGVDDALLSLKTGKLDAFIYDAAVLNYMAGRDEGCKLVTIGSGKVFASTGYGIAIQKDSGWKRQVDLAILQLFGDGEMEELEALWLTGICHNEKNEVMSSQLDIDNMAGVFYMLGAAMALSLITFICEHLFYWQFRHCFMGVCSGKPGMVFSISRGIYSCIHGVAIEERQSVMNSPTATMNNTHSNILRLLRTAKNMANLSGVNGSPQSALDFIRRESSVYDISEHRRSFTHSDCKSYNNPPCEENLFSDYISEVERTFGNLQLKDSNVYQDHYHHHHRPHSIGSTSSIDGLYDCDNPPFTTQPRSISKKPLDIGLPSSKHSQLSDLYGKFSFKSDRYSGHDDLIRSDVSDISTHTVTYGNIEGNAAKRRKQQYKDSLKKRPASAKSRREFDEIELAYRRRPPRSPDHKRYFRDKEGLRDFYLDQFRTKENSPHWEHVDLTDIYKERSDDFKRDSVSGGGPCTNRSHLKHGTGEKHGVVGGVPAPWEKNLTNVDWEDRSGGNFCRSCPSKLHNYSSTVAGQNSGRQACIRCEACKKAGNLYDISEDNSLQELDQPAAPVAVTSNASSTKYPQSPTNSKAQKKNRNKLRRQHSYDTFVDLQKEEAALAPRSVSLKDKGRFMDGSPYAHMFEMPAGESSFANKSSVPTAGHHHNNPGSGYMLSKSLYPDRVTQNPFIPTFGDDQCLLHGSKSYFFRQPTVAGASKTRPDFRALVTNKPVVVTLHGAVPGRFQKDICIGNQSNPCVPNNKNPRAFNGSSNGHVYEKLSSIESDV

Compound	IC50 [1] [µM]	IC50 [2] [µM]	IC50 [3] [µM]
Oc1ccc(CCNCCCCc2ccccc2)cc1	15	0.043	65
Oc1ccc(CCOCCCCc2ccccc2)cc1	> 100	3.7	> 100
Oc1ccc(CCNCCCCCc2ccccc2)cc1	12	0.008	39
c1ccc(CCCCNCCc2ccccc2)cc1	46	3.5	36
c1ccc(CCCNCCc2ccccc2)cc1	> 100	7.3	> 100
CCN(CCCCc1ccccc1)CCc1ccc(O)cc1	27	0.3	88
Oc1ccc(CCNCCCc2ccccc2)cc1	26	0.096	> 100
Oc1ccc(CCCNCCCCCc2ccccc2)cc1	18	0.045	39
Oc1ccc(CCNCCCCCCc2ccccc2)cc1	17	0.035	30
Oc1ccc(CCCNCCCCc2ccccc2)cc1	18	0.015	48
C[C@H](CCc1ccccc1)N[C@H](C)[C@@H](O)c1ccc(O)cc1		0.18	42
Oc1ccc(CCN2CCC(Cc3ccccc3)CC2)cc1	57	0.2	> 100
c1ccc(CCN2CCC(Cc3ccccc3)CC2)cc1	> 100	1.1	> 100
